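How tested: cells in 96-well plates exposed to compound for 48 hours at five concentrations. GI50 = concentration required for 50% inhibition of growth. TGI: total growth inhibition.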 Where a SMILES comes first, the peptide text is derived from it. [ ]: non-standard residue; d: D form. The star is where a group is joined. ξ: configuration not given here. X6 = FC(F)(F)c1cc(NC(=S)*)cc(C(F)(F)F)c1; ξF = NC(Cc1ccccc1)C(=O)O
Legend:
Assay in all cases: growth of human tumour cells (NCI), 48 h
OVCAR-3 ovarian = tested on: OVCAR-3 ovarian
HCT-116 colon = tested on: HCT-116 colon
ACHN renal = tested on: ACHN renal
M14 melanoma = tested on: M14 melanoma
HL-60(TB) leukemia = tested on: HL-60(TB) leukemia
EKVX NSCLC = tested on: EKVX NSCLC
LOX IMVI melanoma = tested on: LOX IMVI melanoma
K-562 leukemia = tested on: K-562 leukemia
SW-620 colon = tested on: SW-620 colon
RPMI-8226 leukemia = tested on: RPMI-8226 leukemia

Compound | GI50 (OVCAR-3 ovarian) [µM] | TGI (OVCAR-3 ovarian) [µM] | GI50 (HCT-116 colon) [µM] | TGI (HCT-116 colon) [µM] | GI50 (ACHN renal) [µM] | TGI (ACHN renal) [µM] | GI50 (M14 melanoma) [µM] | TGI (M14 melanoma) [µM] | GI50 (HL-60(TB) leukemia) [µM] | TGI (HL-60(TB) leukemia) [µM] | GI50 (EKVX NSCLC) [µM] | TGI (EKVX NSCLC) [µM] | GI50 (LOX IMVI melanoma) [µM] | TGI (LOX IMVI melanoma) [µM] | GI50 (K-562 leukemia) [µM] | TGI (K-562 leukemia) [µM] | GI50 (SW-620 colon) [µM] | TGI (SW-620 colon) [µM] | GI50 (RPMI-8226 leukemia) [µM] | TGI (RPMI-8226 leukemia) [µM]
COC(=O)[C@@H](NC(=O)CNC(=O)[C@H]1CCCN1C(=O)C(Cc1ccccc1)NC(=S)Nc1cc(C(F)(F)F)cc(C(F)(F)F)c1)C(C)C (some centres not stated) (X6-[ξF][dP]GV-OMe) | 2.96 | 8.48 | 3.34 | 10.7 | 3.36 | 10.7 | 3.33 | 10.5 | 3.58 | 12.7 | 3.12 | 22.3 | 2.25 | 5.55 | 3.27 | 30.1 | 3.72 | 24.5 |  | 
CCCCCN(CCCCC)CCCNc1c2c(nc3ccc(Cl)cc13)CCCC2 | 1.96 | 4.36 | 0.88 | 2.9 | 3.48 | 11.6 | 1.8 | 3.41 |  |  | 2.78 | 13.6 | 2.06 | 5.97 |  |  | 1.97 | 8.55 | 1.98 | 4.54
COc1cc(CNc2cnc3cc(N)cc(N)c3n2)cc(OC)c1 | 19.6 | 48.3 | 16.3 | 29.8 |  |  | 18.1 | 33.8 | 32.9 | > 100 | 27.3 | 67.4 |  |  | 11.3 | 47 | 24.6 | 64.2 | 6 | 20
Cc1ccc(C(=O)/C(=C/c2ccc([N+](=O)[O-])cc2)SCc2ccc(Cl)cc2)cc1 | 1.72 | 3.54 | 0.317 | 1.36 | 1.69 | 3.13 | 2.52 | 19.4 | 2.35 | 7.29 | 3.04 | 13.9 | 0.445 | 1.65 |  |  | 0.21 | 0.523 | 0.24 | 0.696
O=C1/C(=C/c2ccccc2)CN(C(=O)C(Cl)(Cl)Cl)C/C1=C\c1ccccc1 |  | 7.88 |  | 1.36 |  | 4.62 |  | 2.62 |  | 0.524 |  |  |  | 2.18 |  | 3.26 |  | 1.82 |  | 0.314
CCOC(=O)CN1C(=O)c2cccc3cc([N+](=O)[O-])cc(c23)C1=O |  | 14.9 |  | 3 |  | 21.7 |  | 11.5 |  | 2.32 |  | 28.6 |  | 2.74 |  | 2.03 |  | 2.99 |  | 
COc1cc2c(cc1OC)-c1c3cc(O)ccc3nn[n+]1CC2 |  | > 100 |  | > 100 |  |  |  | > 100 |  | > 100 |  | > 100 |  | > 100 |  | > 100 |  | > 100 |  | > 100
CCCCOC(=O)C1OC(O[C@H]2CCC3(C)C(CCC4(C)C3CC=C3C5CC(C)(C)CCC5(C(=O)O)CC[C@]34C)C2(C)C)C(OC2OC(CO)C(O)C(O)C2O)C(OC2OC(CO)C(O)C(O)C2O)C1O (some centres not stated) | > 100 | > 100 | 20.6 | 42.7 | 20.6 | 48.5 | 17.8 | 32.7 | 22.3 | 52 | 24.4 | 49.7 | 18 | 31.8 | 23.2 | > 100 | 36.6 | > 100 |  | 
COC1(OC)CCC2C1C1CCC(OC)(OC)C21 (configuration not stated) |  | > 50 |  | > 50 |  | > 50 |  | > 50 |  | > 50 |  | > 50 |  |  |  | > 50 |  | > 50 |  | > 50

From PubChem BioAssay (NCI)
